A short description of data set [1]: Hit confirmation in dose-response curve in HepG2 cytotoxicity assay, at 72h. It is filed as toxicity, cell-based. On the set-up: timepoint 72 hour. Particulars: human, HepG2 cells.
In data set [2] the test system is Plasmodium falciparum. The experiment in a line: Hit confirmation in dose-response curve in NF54 nanoGlo assay, at 12h. It is filed as functional, organism-based, Erythrocyte. More on the design: timepoint 12 hour. Particulars: Plasmodium falciparum, NF54, Erythrocyte, 12 h.
The test system of data set [3] is Plasmodium falciparum. Kind of data set: Hit confirmation in dose-response curve in NF54 pLDH assay, at 72h. More on the design: timepoint 72 hour. Particulars: NF54, Erythrocyte. It is filed as functional, organism-based.
Data set [4] relates to Plasmodium falciparum. Kind of data set: Hit confirmation in dose-response curve in Dd2 pLDH assay, at 72h. On the set-up: timepoint 72 hour. It is filed as functional, organism-based. The note with it: Dd2, Erythrocyte.
For data set [5], the system named is Plasmodium falciparum. Kind of data set: Hit confirmation in dose-response curve in NF54 nanoGlo assay, at 72h. It is filed as functional, organism-based, Erythrocyte. On the set-up: timepoint 72 hour. The note with it: Plasmodium falciparum, NF54, Erythrocyte, 72 h.

We go through 27 compounds from ChEMBL document CHEMBL4888484, “Replenishing the malaria drug discovery pipeline: Screening and hit evaluation of the MMV Hit Generation Library 1 (HGL1) against asexual blood stage Plasmodium falciparum ,using a nano luciferase reporter read-out” (2022).

For orientation: IC50 means the midpoint of a concentration-inhibition curve. Low values mean greater potency, high ones weaker potency.

Consider `COCCNC(=O)c1ccc(-n2nc(-c3nnc(C)o3)c(C)c2-c2ccc(OC)cc2)cc1`, for which the IC50 at 72 h in data set [1] is > 10 µM. Further, the IC50 with Plasmodium falciparum [2] was 3.63 µM; in the data set on Plasmodium falciparum [3], > 10 µM; in the data set on Plasmodium falciparum [4], > 10 µM; with Plasmodium falciparum [5], 3.24 µM.
Take `COc1ccc(CC(=O)N2N=C(C)C[C@]2(O)c2cccnc2)cc1`: the IC50 at 72 h in data set [1] was > 10 µM. In addition, the concentration for half-maximal inhibition (IC50) in the data set with Plasmodium falciparum [2] is 1.02 µM; in the data set on Plasmodium falciparum [3], > 10 µM; in the data set with Plasmodium falciparum [4] it was > 10 µM; with Plasmodium falciparum [5], 2.95 µM.
Take `COc1ccc(-c2cc3ncc(C(=O)c4cc(Cl)ccc4O)cn3n2)cc1`: the concentration for half-maximal inhibition (IC50) at 72 h in data set [1] was > 10 µM. Further, the IC50 came to 7.24 µM with Plasmodium falciparum [2], 3.89 µM in the data set with Plasmodium falciparum [3], 3.63 µM with Plasmodium falciparum [4] and 2.29 µM in the data set on Plasmodium falciparum [5].
For the compound `O=C(N1CCCN(c2nc3ccccc3nc2-c2ccccc2)CC1)C(Cl)(Cl)Cl`, the IC50 at 72 h in data set [1] was > 10 µM. For the same compound, the 50% inhibitory concentration (IC50) in the data set with Plasmodium falciparum [2] was 8.91 µM; in the data set with Plasmodium falciparum [3] it was 7.24 µM; in the data set on Plasmodium falciparum [4] it was 5.13 µM; in the data set on Plasmodium falciparum [5], 2.88 µM.
As to `COc1cccc(N2C(=O)C[C@]3(CC3(c3ccccc3)c3ccccc3)C2=O)c1`, the IC50 at 72 h in data set [1] is > 10 µM. In addition, the IC50 in the data set with Plasmodium falciparum [2] was 0.832 µM; in the data set on Plasmodium falciparum [3], > 10 µM; with Plasmodium falciparum [4], > 10 µM; in the data set on Plasmodium falciparum [5], 4.07 µM.
Take `O=C(Nc1ccccc1Cl)N1CCC(N2CCc3sccc3C2)CC1`: the half-inhibitory concentration (IC50) at 72 h in data set [1] was > 10 µM. Moreover, the IC50 was > 10 µM in the data set on Plasmodium falciparum [2], 3.55 µM in the data set with Plasmodium falciparum [3], 4.57 µM in the data set on Plasmodium falciparum [4] and 3.72 µM with Plasmodium falciparum [5].
With `Oc1c([C@@H](c2ccccn2)N2CCCC2)ccc2cccnc12`, the IC50 at 72 h in data set [1] was > 10 µM. In addition, the IC50 with Plasmodium falciparum [2] turned out to be 3.55 µM; in the data set with Plasmodium falciparum [3], 7.76 µM; in the data set with Plasmodium falciparum [4], 2.34 µM; in the data set on Plasmodium falciparum [5], 2.14 µM.
Regarding `COc1cc([C@H](CC(=O)NC2CCN(Cc3ccccc3)CC2)N2Cc3ccccc3C2=O)cc(OC)c1OC`, the IC50 at 72 h in data set [1] was > 10 µM. In addition, the IC50 amounted to 5.75 µM in the data set with Plasmodium falciparum [2], 2.75 µM with Plasmodium falciparum [3], 3.72 µM with Plasmodium falciparum [4] and 2.4 µM with Plasmodium falciparum [5].
Consider `Cc1cc(C)n(-c2nc(Nc3ccc(Cl)cc3)nc(Nc3ccc(Cl)cc3)n2)n1`, for which the half-inhibitory concentration (IC50) at 72 h in data set [1] is > 10 µM. The IC50 in the data set with Plasmodium falciparum [2] was 6.76 µM; in the data set on Plasmodium falciparum [3], > 10 µM; in the data set on Plasmodium falciparum [4], 3.63 µM; with Plasmodium falciparum [5], 2.19 µM.
On to `Cn1cncc1CC(=O)Nc1ccnc(NC(=O)OC(C)(C)C)c1`, for which the IC50 at 72 h in data set [1] was > 10 µM. Further, the IC50 is 1.78 µM in the data set with Plasmodium falciparum [2], 3.8 µM in the data set with Plasmodium falciparum [3], 2.14 µM in the data set with Plasmodium falciparum [4] and 1.23 µM in the data set with Plasmodium falciparum [5].
`Cc1cc(C(=O)N[C@@H](C)c2nc(-c3cccnc3)cs2)cc(O)n1`: the IC50 at 72 h in data set [1] is > 10 µM. Also, the IC50 in the data set with Plasmodium falciparum [2] came to 3.39 µM; in the data set with Plasmodium falciparum [3], 2.24 µM; in the data set on Plasmodium falciparum [4], 2.4 µM; in the data set with Plasmodium falciparum [5], 1.74 µM.
Turning to `COc1ccc2[nH]c3c(c2c1)CC(C(=O)O)NC3c1ccc(OC)c(CN2CCN(c3ccccc3F)CC2)c1` (stereo not given), the IC50 at 72 h in data set [1] is > 10 µM. For the same compound, the IC50 in the data set with Plasmodium falciparum [2] came out at 3.98 µM; with Plasmodium falciparum [3], 3.8 µM; in the data set on Plasmodium falciparum [4], 2.88 µM; in the data set on Plasmodium falciparum [5], 1.55 µM.
Turning to `C[C@@]1(C(=O)NCc2ccccc2)Cn2nc(-c3ccccc3)cc2C(=O)N1c1ccc2c(c1)OCCO2`, in data set [1], the IC50 at 72 h is > 10 µM. Besides, the IC50 was found to be 3.47 µM in the data set with Plasmodium falciparum [2], 9.77 µM in the data set on Plasmodium falciparum [3], 7.41 µM in the data set on Plasmodium falciparum [4] and 2.24 µM in the data set on Plasmodium falciparum [5].
On the same counts, the results for `CCCN1C(=O)c2ccccc2N2C(=O)CC[C@@]12C(=O)Nc1ccc(OC)cc1` are > 10 µM, 1.38 µM, 3.47 µM, 2.75 µM and 1.45 µM.
Turning to `O=C(Nc1nc2cccc(Cl)c2o1)c1cccc(F)c1`, the IC50 at 72 h in data set [1] was > 10 µM. The IC50 with Plasmodium falciparum [2] is > 10 µM; with Plasmodium falciparum [3], 2 µM; in the data set on Plasmodium falciparum [4] it was 2.51 µM; in the data set on Plasmodium falciparum [5] it was 1.32 µM.
Consider `CC[n+]1c(/C=C/N(C)c2ccccc2)oc2ccc(-c3ccccc3)cc21`, for which the IC50 at 72 h in data set [1] was > 10 µM. Besides, the IC50 with Plasmodium falciparum [2] turned out to be 5.37 µM; in the data set on Plasmodium falciparum [3] it was 0.891 µM; in the data set with Plasmodium falciparum [4] it was 0.417 µM; in the data set with Plasmodium falciparum [5], 0.562 µM.
As for `Cc1ccc(N2C(=O)C[C@]3(CC3(c3ccccc3)c3ccccc3)C2=O)cc1`, the IC50 at 72 h in data set [1] was > 10 µM. Also, the IC50 is 0.525 µM in the data set with Plasmodium falciparum [2], > 10 µM in the data set with Plasmodium falciparum [3], > 10 µM in the data set with Plasmodium falciparum [4] and 1.51 µM in the data set with Plasmodium falciparum [5].
Consider `Oc1cccc(CN2CCC3(CC2)C[C@H](c2ccccc2)CN(C2CC2)C3)c1`, for which, in data set [1], the IC50 at 72 h was > 10 µM. The IC50 came to 5.13 µM with Plasmodium falciparum [2], 6.31 µM with Plasmodium falciparum [3], 6.31 µM in the data set on Plasmodium falciparum [4] and 3.24 µM in the data set with Plasmodium falciparum [5].
As to `Cc1ccc(-c2cc(C(=O)Nc3nnc(C(C)C)s3)no2)cc1F`, the IC50 at 72 h in data set [1] is > 10 µM. Further, the IC50 is 1.91 µM in the data set with Plasmodium falciparum [2], > 10 µM in the data set on Plasmodium falciparum [3], > 10 µM in the data set with Plasmodium falciparum [4] and 3.8 µM in the data set with Plasmodium falciparum [5].
As to `O=C(c1cc2ccccc2[nH]1)N1CCc2sc(Cl)cc2C1`, the IC50 at 72 h in data set [1] is > 10 µM. In addition, the IC50 in the data set on Plasmodium falciparum [2] was 2.95 µM; with Plasmodium falciparum [3], > 10 µM; in the data set with Plasmodium falciparum [4] it was > 10 µM; in the data set on Plasmodium falciparum [5], 7.76 µM.
`Cc1ccc(NC(=O)Nc2cc(C)ccc2N2CCCN(Cc3ccc(F)cc3)C2=O)cc1`: the IC50 at 72 h in data set [1] was > 10 µM. Besides, the IC50 in the data set with Plasmodium falciparum [2] is > 10 µM; with Plasmodium falciparum [3] it was 14.1 µM; in the data set with Plasmodium falciparum [4], > 10 µM; in the data set with Plasmodium falciparum [5] it was 5.5 µM.
As for `Cc1nnc(NC(c2cnc3ccccc3c2)[C@H]2C[C@@H](O)C2)s1` (stereo not given in full), in data set [1], the IC50 at 72 h was > 10 µM. For the same compound, the IC50 in the data set on Plasmodium falciparum [2] is 1.58 µM; in the data set with Plasmodium falciparum [3], > 10 µM; in the data set on Plasmodium falciparum [4], > 10 µM; with Plasmodium falciparum [5] it was 4.07 µM.
As to `Oc1ccccc1CNc1cccc2cccnc12`, the IC50 at 72 h in data set [1] is > 10 µM. Also, the IC50 with Plasmodium falciparum [2] is 8.51 µM; in the data set with Plasmodium falciparum [3], > 10 µM; in the data set with Plasmodium falciparum [4], 8.13 µM; in the data set on Plasmodium falciparum [5], 4.37 µM.
As to `COc1nc(N2[C@@H]3CC[C@H]2C[C@@H](OC)C3)ncc1F`, the IC50 at 72 h in data set [1] was > 10 µM. In addition, the IC50 is > 10 µM in the data set with Plasmodium falciparum [2], 6.17 µM in the data set on Plasmodium falciparum [3], > 10 µM in the data set with Plasmodium falciparum [4] and 4.07 µM with Plasmodium falciparum [5].
With `COc1ccc(C(=O)C[n+]2cc(-c3ccc(OC)cc3)n3c2CCCC3)cc1`, the IC50 at 72 h in data set [1] was > 10 µM. The IC50 in the data set with Plasmodium falciparum [2] is > 10 µM; in the data set with Plasmodium falciparum [3] it was 2.34 µM; in the data set with Plasmodium falciparum [4], 1.48 µM; in the data set on Plasmodium falciparum [5], 1.41 µM.
For the compound `CC(C)C(=O)Nc1ccc(-c2cc(-c3ccc(NC(=O)C(C)C)cc3)nc(-c3ccncc3)n2)cc1`, the IC50 at 72 h in data set [1] is > 10 µM. Further, the half-maximal inhibitory concentration (IC50) in the data set on Plasmodium falciparum [2] is > 10 µM; with Plasmodium falciparum [3], 8.71 µM; with Plasmodium falciparum [4], > 10 µM; in the data set with Plasmodium falciparum [5], 4.68 µM.
Consider `O=C(Cc1ccc(N(Cc2cccc(F)c2)C(=O)C2CCCC2)cc1)NCCN1CCCC1`, for which, in data set [1], the IC50 at 72 h is > 10 µM. Moreover, the IC50 is > 10 µM with Plasmodium falciparum [2], 5.01 µM in the data set with Plasmodium falciparum [3], > 10 µM with Plasmodium falciparum [4] and 3.98 µM in the data set with Plasmodium falciparum [5].
